Here are results for two molecules from patent publication US12527977B2, “Combined neuromodulation techniques” (GE Precision Healthcare LLC, priority 2021, dated 2026).

In experiment [1] the test system is Zucker diabetic fatty (ZDF) rat model. To be noted: previously shown treatment, cited from earlier work.
Experiment [2] shares this test system. Put plainly: Chronic non-fasted blood glucose monitoring in ZDF rats, drug combined with pFUS ultrasound stimulation. The experiment is classed as in vivo. The text has this:
The following relates to the diabetic animal model used and the method of ultrasound neuromodulation. • Animal Model of Type 2 Diabetes • Zucker diabetic fatty (ZDF) rat model Adult male ZDF rats (Charles River, Kingston, NY USA) were ordered for arrival prior to 8 weeks of age. All animals were maintained on a high caloric rodent chow (Purina 5008), provided, with water, provided ad libitum. […] All procedures performed in accordance with the National Institutes of Health (NIH) Guidelines under protocols approved by the Institutional Animal Care and Use Committee (IACUC) of GE Global Research. ZDF animals were acclimated by daily handling to prevent stress-induced changes in circulating glucose. […] All rats were anesthetized at 1-4% isoflurane at 1 L/min O2. Rats were then placed on a water circulating warming pad, with a rectal thermometer probe to maintain body temperature. The abdominal area was completely shaved and the hair fully removed with Nair to allow for later stimulation of nerve plexus located in either the hepatic or GI systems. […] These locations were then marked with a permanent marker and a ultrasound stimulation probe was placed on the target area. The prototype pFUS device then delivered 3 minutes of stimulation (1.1 MHz, 150 burst cycles, 500 us burst period) Blood glucose levels of the rats were monitored on a daily basis for chronic studies and at 5-minute intervals for acute and OGTT studies. In chronic studies additional blood samples were collected on a weekly basis for the analysis of circulating markers. A final terminal blood sample was collected at the time of euthanization and used for the evaluation of circulating insulin levels. For the prototype pFUS device, stimulus (1.1 MHZ, 200 mV per pulse, 150 burst cycles, 500 us burst period) was applied to each region for 3 minutes per target. For example, pFUS was initially applied to the hepatic portal region for 3 minutes. […] There was an about 5 minute delay period in between stimulation of the first and second, or second and third anatomical target sites. Blood samples obtained from the tail vein were used to assess daily glucose (for chronic studies) and 5-minute glucose intervals (for acute studies) using a Freestyle Freedom Lite (Abbott Diabetes Inc., Alameda, CA, US). The Freestyle Freedom Light meter using a small blood 15 volume (0.3 uL) and as such no additional fluids were needed to recover total volume following blood sampling. Combination of pharmaceutical intervention and pFUS therapy was tested to determine the effects of dual therapies on therapeutic window as well as duration of efficacy. […] This dosing regimen (timing) is identical to that used in humans with dosing to occur prior to both morning and evening mealtimes. […]

The mark [3] stands for this setting: low dose metformin alone cohort, FIG. 9 data 304.

As to “FGF1: FGF1 injected into the intracerebroventricular space; previously reported treatment”, the “effect in ZDF animals far along in disease progression” value in experiment [1] (FGF1 icv, animals with >300 mg/dL average glucose) is recorded as “failed to work”. For the same molecule, the “remission in the ZDF model” value in experiment [1] (FGF1 injection into the intracerebroventricular (icv) space) is 4 week.
In the case of `CN(C)C(=N)N=C(N)N` [Metformin], the “remission after ultrasound cessation” value in experiment [2] (low dose metformin added to dual-site stimulation (7 days ultrasound, then stopped), FIG. 9 data 302) was “did not result in extended remission”. In experiment [2] (setting [3]), the blood glucose result is “temporary drop below 200 mg/dL” and the “effectiveness (absolute decrease in blood glucose or length of time spent below 200 mg/dL) versus liraglutide alone” value is listed as “not as effective as the liraglutide alone cohort”. For the same molecule, the “blood glucose reduction duration versus single site plus liraglutide cohort” value in experiment [2] (low dose metformin plus single site (hepatoportal plexus) stimulus, FIG. 9 data 306) was “not as effective”.
